Experimental data: PMC7489219 (Molecular Brain, 2020)
Counter-ions that a name gives are not always drawn.

What follows are compounds tested on T1, primary mouse cortical neurons (assay: cells). Conditions: Cortical neurone, 20 h, read-out: % inhibition, inhibition of NMDA-induced cell death (protection score), 30 min pre-treatment.
T1 construct: primary cortical neurons, DIV 10
Set-up: Protection from NMDA-induced (30 uM, 10 min) neuronal death; Hoechst nuclear morphology by automated microscopy
In short: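 On DIV 10, primary mouse cortical neurons were given compound at 10 μM for 30 min at 37 °C, then 30 μM NMDA for 10 min, washed, and kept 20 h with compound. Dead cells were scored by nuclear morphology, and % protection was derived from survival relative to vehicle + NMDA and untreated controls.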

Point of comparison: `COc1cc([C@@H]2c3cc4c(cc3[C@@H](O[C@@H]3O[C@@H]5CO[C@@H](C)O[C@H]5[C@H](O)[C@H]3O)[C@H]3COC(=O)[C@H]23)OCO4)cc(OC)c1O` [Etoposide (VP-16)], inhibition at 10 µM -11.8%. Against it:
- CC(=O)O[C@@]12CO[C@@H]1C[C@H](O)[C@@]1(C)C(=O)[C@H](O)C3=C(C)[C@@H](OC(=O)[C@H](O)[C@@H](NC(=O)OC(C)(C)C)c4ccccc4)C[C@@](O)([C@@H](OC(=O)c4ccccc4)[C@H]21)C3(C)C [Docetaxel (Taxotere)] — higher, -4.27%
- O=c1[nH]c2ccccc2n1CCCN1CCC(n2c(=O)[nH]c3cc(Cl)ccc32)CC1 [Domperidone (Motilium)] — higher, -9.12%
- COc1cc2c(cc1OC)C(=O)C(CC1CCN(Cc3ccccc3)CC1)C2 (stereo not drawn) [Donepezil HCl (Aricept)] — higher, -8.98%
- NCCc1ccc(O)c(O)c1 [Dopamine hydrochloride (Inotropin)] — higher, -1.44%
- C[C@@H](O)[C@H]1C(=O)N2C(C(=O)O)=C(S[C@@H]3CN[C@H](CNS(N)(=O)=O)C3)[C@H](C)[C@H]12 [Doripenem Hydrate] — higher, -0.0213%
- CCN[C@H]1C[C@H](C)S(=O)(=O)c2sc(S(N)(=O)=O)cc21 [Dorzolamide HCL] — higher, 0.0606%
- C[C@]12CCC(=O)C=C1[C@@H]1C[C@@H]1[C@H]1[C@@H]3[C@@H]4C[C@@H]4[C@@]4(CCC(=O)O4)[C@@]3(C)CC[C@@H]12 [Drospirenone] — higher, -0.385%
- C[C@]12C=CC(=O)N[C@@H]1CC[C@@H]1[C@@H]2CC[C@]2(C)[C@@H](C(=O)Nc3cc(C(F)(F)F)ccc3C(F)(F)F)CC[C@@H]12 [Dutasteride] — higher, 113%
- Cn1c(=O)c2c(ncn2CC(O)CO)n(C)c1=O (stereo not drawn) [Dyphylline (Dilor)] — higher, -0.361%
- C[C@H]([C@H](O)CCC(C)(C)O)[C@H]1CC[C@@]2(O)C3=CC(=O)[C@@H]4C[C@@H](O)[C@@H](O)C[C@]4(C)[C@H]3CC[C@]12C [Ecdysone] — higher, 0.187%
- Clc1ccc(COC(Cn2ccnc2)c2ccc(Cl)cc2Cl)cc1 (stereo not drawn) [Econazole nitrate (Spectazole)] — higher, -2.25%
- Cc1ccc(-n2[nH]c(C)c(N=Nc3cccc(-c4cccc(C(=O)O)c4)c3O)c2=O)cc1C [Eltrombopag (SB-497115-GR)] — higher, 93.9%
- COc1cc2c(cc1Cc1cccc(Cl)c1F)c(=O)c(C(=O)O)cn2[C@H](CO)C(C)C [Elvitegravir (GS-9137)] — higher, 89.3%
- Cc1cc(O)c2c(c1)C(=O)c1cc(O)cc(O)c1C2=O [Emodin] — higher, -4.08%
- Nc1nc(=O)n([C@@H]2CS[C@H](CO)O2)cc1F [Emtricitabine (Emtriva)] — higher, 14.4%
- CCOC(=O)[C@H](CCc1ccccc1)N[C@@H](C)C(=O)N1CCC[C@H]1C(=O)O [Enalapril maleate (Vasotec)] — higher, 54.5%
- C[C@H](N[C@@H](CCc1ccccc1)C(=O)O)C(=O)N1CCC[C@H]1C(=O)O [Enalaprilat dihydrate] — higher, -4.34%
- CC1(C)[C@@H](O)CC[C@]2(C)[C@H]3C(=O)C=C4[C@@H]5C[C@@](C)(C(=O)O)CC[C@]5(C)CC[C@@]4(C)[C@]3(C)CC[C@@H]12 [Enoxolone (Glycyrrhetin)] — higher, -0.00685%
- C=C1[C@H](CO)[C@@H](O)C[C@@H]1n1cnc2c(=O)[nH]c(N)nc21 [Entecavir hydrate] — higher, 3.22%
- CNC[C@H](O)c1ccc(O)c(O)c1 [Epinephrine bitartrate (Adrenalinium)] — higher, -0.43%
- COC(=O)[C@@H]1CC2=CC(=O)CC[C@]2(C)[C@@]23O[C@@H]2C[C@@]2(C)[C@@H](CC[C@@]24CCC(=O)O4)[C@H]13 [Eplerenone] — higher, 6.59%
- O=C(O)CSCC(=O)NC1CCSC1=O (stereo not drawn) [Erdosteine] — higher, -0.838%
- CC(C)[C@@H](C)/C=C/[C@@H](C)[C@H]1CC[C@H]2C3=CC=C4C[C@@H](O)CC[C@]4(C)[C@H]3CC[C@]12C [Ergosterol] — higher, -1.47%
- C#Cc1cccc(Nc2ncnc3cc(OCCOC)c(OCCOC)cc23)c1 [Erlotinib HCl] — higher, 22.9%
- CC[C@H]1OC(=O)[C@H](C)[C@@H](O[C@H]2C[C@@](C)(OC)[C@@H](O)[C@H](C)O2)[C@H](C)[C@@H](O[C@@H]2O[C@H](C)C[C@H](N(C)C)[C@H]2O)[C@](C)(O)C[C@@H](C)C(=O)[C@H](C)[C@@H](O)[C@]1(C)O [Erythromycin (E-Mycin)] — higher, 29.4%
- COc1ccc2[nH]c([S@@+]([O-])Cc3ncc(C)c(OC)c3C)nc2c1 [Esomeprazole sodium (Nexium)] — higher, 21.3%
- C[C@]12CC[C@@H]3c4ccc(O)cc4CC[C@H]3[C@@H]1CC[C@@H]2O [Estradiol] — higher, 4.78%
- C[C@]12CC[C@@H]3c4ccc(O)cc4CC[C@H]3[C@@H]1CCC2=O [Estrone] — higher, -2.18%
- C#C[C@]1(O)CC[C@H]2[C@@H]3CCc4cc(O)ccc4[C@H]3CC[C@@]21C [Ethinyl estradiol] — higher, 57.3%
- CCc1cc(C(N)=S)ccn1 [Ethionamide] — higher, 27.7%
- CCc1cccc2c3c([nH]c12)C(CC)(CC(=O)O)OCC3 (stereo not drawn) [Etodolac (Lodine)] — higher, 9.68%
- O=C(c1ccc(OCCN2CCCCC2)cc1)c1c(-c2ccc(O)cc2)sc2cc(O)ccc12 [Evista (Raloxifene Hydrochloride)] — lower, -19.3%
- CN1c2ccccc2C(=O)N2CCc3c([nH]c4ccccc34)[C@H]21 [Evodiamine (Isoevodiamine)] — higher, 0.0207%
- C=C1C[C@@H]2[C@H](CC[C@]3(C)C(=O)CC[C@@H]23)[C@@]2(C)C=CC(=O)C=C12 [Exemestane] — higher, -1.67%
- O=C1[C@H](CC[C@H](O)c2ccc(F)cc2)[C@@H](c2ccc(O)cc2)N1c1ccc(F)cc1 [Ezetimibe (Zetia)] — higher, 21.4%
- Cc1nc(-c2ccc(OCC(C)C)c(C#N)c2)sc1C(=O)O [Febuxostat (Uloric)] — higher, -0.186%
- CCOC(=O)C1=C(C)NC(C)=C(C(=O)OC)C1c1cccc(Cl)c1Cl (stereo not drawn) [Felodipine (Plendil)] — higher, -1.75%
- COC(=O)Nc1nc2cc(Sc3ccccc3)ccc2[nH]1 [Fenbendazole (Panacur)] — higher, -8.52%
- CC(C(=O)O)c1cccc(Oc2ccccc2)c1 (stereo not drawn) [Fenoprofen calcium] — higher, 1.38%
- CC(C)C(=O)Oc1ccc(CO)cc1[C@H](CCN(C(C)C)C(C)C)c1ccccc1 [Fesoterodine fumarate (Toviaz)] — higher, -0.933%
- CC(C)(C)NC(=O)[C@H]1CC[C@H]2[C@@H]3CC[C@H]4NC(=O)C=C[C@]4(C)[C@H]3CC[C@]12C [Finasteride] — higher, 59.6%
- O=c1c(O)c(-c2ccc(O)c(O)c2)oc2cc(O)ccc12 [Fisetin (Fustel)] — higher, -2.5%
- CN1CCN(c2c(F)cc3c(=O)c(C(=O)O)cn(CCF)c3c2F)CC1 [Fleroxacin (Quinodis)] — higher, -8.01%
- O=c1[nH]c(=O)n([C@H]2C[C@H](O)[C@@H](CO)O2)cc1F [Floxuridine] — higher, -8.07%
- OC(Cn1cncn1)(Cn1cncn1)c1ccc(F)cc1F [Fluconazole] — higher, 6.24%
- Nc1nc(=O)[nH]cc1F [Flucytosine (Ancobon)] — higher, 3.84%
- Nc1nc(F)nc2c1ncn2[C@@H]1O[C@H](CO)[C@@H](O)[C@@H]1O [Fludarabine (Fludara)] — higher, 16.2%
- Nc1nc(F)nc2c1ncn2[C@@H]1O[C@H](COP(=O)(O)O)[C@@H](O)[C@@H]1O [Fludarabine Phosphate (Fludara)] — higher, -10.8%
- CCOC(=O)c1ncn2c1CN(C)C(=O)c1cc(F)ccc1-2 [Flumazenil] — lower, -13.8%
- CC(=O)OCC(=O)[C@@]12OC(C)(C)O[C@@H]1C[C@H]1[C@@H]3C[C@H](F)C4=CC(=O)C=C[C@]4(C)[C@@]3(F)[C@@H](O)C[C@@]12C [Fluocinonide (Vanos)] — higher, -1.57%
- CNCCC(Oc1ccc(C(F)(F)F)cc1)c1ccccc1 (stereo not drawn) [Fluoxetine HCl] — higher, -11.1%
- CC(C(=O)O)c1ccc(-c2ccccc2)c(F)c1 (stereo not drawn) [Flurbiprofen (Ansaid)] — higher, 14%
- COc1ccc(-c2coc3cc(O)ccc3c2=O)cc1 [Formononetin (Formononetol)] — higher, -0.533%
- N[C@@H](CSCCCO)C(=O)O [Fudosteine] — higher, 7.72%
- C[C@]12CC[C@@H]3c4ccc(O)cc4C[C@@H](CCCCCCCCC[S+]([O-])CCCC(F)(F)C(F)(F)F)[C@H]3[C@@H]1CC[C@@H]2O (stereo partly drawn) [Fulvestrant (Faslodex)] — higher, -2.64%
- COc1cc(/C=C/C(=O)O)ccc1O [Fumalic acid (Ferulic acid)] — higher, -0.686%
- NS(=O)(=O)c1cc(C(=O)O)c(NCc2ccco2)cc1Cl [Furosemide (Lasix)] — higher, 32.1%
- CC[N+](CC)(CC)CCOc1cccc(OCC[N+](CC)(CC)CC)c1OCC[N+](CC)(CC)CC [Gallamine triethiodide (Flaxedil)] — higher, -8.46%
- CC(C)=CCC[C@]1(C)C=Cc2c(O)c3c(c(CC=C(C)C)c2O1)O[C@]12C(=C[C@@H]4C[C@H]1C(C)(C)O[C@@]2(C/C=C(/C)C(=O)O)C4=O)C3=O [Gambogic Acid] — higher, 14.8%
- OCc1ccc(O[C@@H]2O[C@H](CO)[C@@H](O)[C@H](O)[C@H]2O)cc1 [Gastrodin(Gastrodine)] — higher, 3.84%
- COc1c(N2CCNC(C)C2)c(F)cc2c(=O)c(C(=O)O)cn(C3CC3)c12 (stereo not drawn) [Gatifloxacin] — higher, -10.3%
- Nc1ccn([C@@H]2O[C@H](CO)[C@@H](O)C2(F)F)c(=O)n1 [Gemcitabine HCl (Gemzar)] — higher, -9.76%
- Cc1ccc(C)c(OCCCC(C)(C)C(=O)O)c1 [Gemfibrozil (Lopid)] — higher, 2.6%
- C#C[C@]1(O)C=C[C@H]2[C@@H]3CCC4=CC(=O)CC[C@@H]4[C@H]3CC[C@@]21CC [Gestodene] — higher, -1.48%
- CCC1=C(C)CN(C(=O)NCCc2ccc(S(=O)(=O)NC(=O)N[C@H]3CC[C@H](C)CC3)cc2)C1=O [Glimepiride] — higher, -11.4%
